Measured values published in ChEMBL document CHEMBL1201862, “PubChem BioAssay data set” (2004).
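Where inhibition never reached the appropriate level, the endpoint shown equals the highest concentration tested. Otherwise, values were interpolated linearly from a five-concentration, 48-hour dose response in 96-well plates. Abbreviation: GI50, concentration required for 50% inhibition of growth.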 Calls of active or inactive are those of the source. Rule as the data show it: active = GI50 up to about 1.1 µM and inactive = higher. Non-standard residues stand in square brackets, D forms with d. Residues, ends and D or L forms follow the SMILES beside them. ξ: configuration not given here. Pentanoyl(2-O,4-OH,5-Cl) = O=C(O)C(O)CC(O)CCl; Ile(3ξ) = CCC(C)[C@H](N)C(=O)O; NMeV = CN[C@H](C(=O)O)C(C)C; NMeA = CN[C@@H](C)C(=O)O; βAla = NCCC(=O)O

Key:
Experiment in all cases: growth of human tumour cells (NCI), 48 h
ACHN = tested on: ACHN
COLO 205 = tested on: COLO 205
LOX IMVI = tested on: LOX IMVI
MOLT-4 = tested on: MOLT-4
NCI-H23 = tested on: NCI-H23
OVCAR-5 = tested on: OVCAR-5
RPMI-8226 = tested on: RPMI-8226
SF-268 = tested on: SF-268
SK-MEL-5 = tested on: SK-MEL-5
SK-OV-3 = tested on: SK-OV-3
SNB-19 = tested on: SNB-19
SW-620 = tested on: SW-620
U-251 = tested on: U-251
UACC-62 = tested on: UACC-62
UO-31 = tested on: UO-31
SF-539 = tested on: SF-539
DMS-114 = tested on: DMS-114
HOP-18 = tested on: HOP-18
M19-MEL = tested on: M19-MEL
SNB-78 = tested on: SNB-78

Row | SMILES | GI50 (ACHN) | GI50 (COLO 205) | GI50 (LOX IMVI) | GI50 (MOLT-4) | GI50 (NCI-H23) | GI50 (OVCAR-5) | GI50 (RPMI-8226) | GI50 (SF-268) | GI50 (SK-MEL-5) | GI50 (SK-OV-3) | GI50 (SNB-19) | GI50 (SW-620) | GI50 (U-251) | GI50 (UACC-62) | GI50 (UO-31) | GI50 (SF-539) | GI50 (DMS-114) | GI50 (HOP-18) | GI50 (M19-MEL) | GI50 (SNB-78)
1 | Oc1c(Br)ccc2cccnc12 | 3.13 µM (inactive) | 3.04 µM (inactive) | 0.895 µM (active) | 2.02 µM (inactive) | 1.15 µM (inactive) | 4.32 µM (inactive) | 2.79 µM (inactive) | 0.646 µM (active) | 2.38 µM (inactive) | 4.21 µM (inactive) | 5.06 µM (inactive) | 4.81 µM (inactive) | 2.4 µM (inactive) | 1.52 µM (inactive) | 1.64 µM (inactive) | – | – | – | – | –
2 | N#Cc1c(NC(=S)NC(=O)c2ccccc2)nc2c(c1-c1ccccc1)CCCC2 | – | > 100 µM (inactive) | > 100 µM (inactive) | > 100 µM (inactive) | > 100 µM (inactive) | > 100 µM (inactive) | > 100 µM (inactive) | 0.299 µM (active) | 73.6 µM (inactive) | 31.4 µM (inactive) | > 100 µM (inactive) | > 100 µM (inactive) | > 100 µM (inactive) | > 100 µM (inactive) | 88.7 µM (inactive) | – | – | – | – | –
3 | COc1ccc(C2c3cc4c(cc3OC(NCCO)C2C)OCO4)cc1 (stereo not drawn) | 29.6 µM (inactive) | 18.4 µM (inactive) | 23.3 µM (inactive) | 16.6 µM (inactive) | 35.8 µM (inactive) | 39.7 µM (inactive) | 22.1 µM (inactive) | 23.2 µM (inactive) | 19.8 µM (inactive) | 38.1 µM (inactive) | 28 µM (inactive) | 34.4 µM (inactive) | 21.2 µM (inactive) | 28.2 µM (inactive) | 20.5 µM (inactive) | 20 µM (inactive) | – | – | – | –
4 | Cc1ccc(C#CS(=O)(=O)C(F)(F)F)cc1 | – | > 100 µM (inactive) | > 31.6 µM (inactive) | > 100 µM (inactive) | > 100 µM (inactive) | > 100 µM (inactive) | > 100 µM (inactive) | > 100 µM (inactive) | > 100 µM (inactive) | > 100 µM (inactive) | > 100 µM (inactive) | > 100 µM (inactive) | > 100 µM (inactive) | > 100 µM (inactive) | > 100 µM (inactive) | > 100 µM (inactive) | > 100 µM (inactive) | > 100 µM (inactive) | > 100 µM (inactive) | > 100 µM (inactive)
5 | Cc1c(Cl)c(=O)oc2cc(OCC(=O)c3ccccc3)ccc12 | > 100 µM (inactive) | > 100 µM (inactive) | – | > 100 µM (inactive) | > 100 µM (inactive) | > 100 µM (inactive) | – | > 100 µM (inactive) | > 100 µM (inactive) | > 100 µM (inactive) | > 100 µM (inactive) | > 100 µM (inactive) | 33.2 µM (inactive) | > 100 µM (inactive) | > 100 µM (inactive) | > 100 µM (inactive) | – | – | – | –
6 | c1ccc2c(c1)NCc1cc3ccccc3nc1O2 | – | > 100 µM (inactive) | 97.1 µM (inactive) | 83 µM (inactive) | > 100 µM (inactive) | > 100 µM (inactive) | > 100 µM (inactive) | > 100 µM (inactive) | > 100 µM (inactive) | > 100 µM (inactive) | > 100 µM (inactive) | > 100 µM (inactive) | – | > 100 µM (inactive) | 26.9 µM (inactive) | > 100 µM (inactive) | 99.5 µM (inactive) | > 100 µM (inactive) | > 100 µM (inactive) | > 100 µM (inactive)
7 | CCC(C)[C@@H]1NC(=O)[C@@H]2CCCN2C(=O)C(CC(O)CCl)OC(=O)CCNC(=O)[C@H](C)N(C)C(=O)[C@H](C(C)C)N(C)C1=O (stereo partly drawn) (cyclo([Ile(3ξ)][NMeV][NMeA][βAla][Pentanoyl(2-O,4-OH,5-Cl)]P)) | > 100 µM (inactive) | 1.91 µM (inactive) | – | – | > 100 µM (inactive) | > 100 µM (inactive) | 0.247 µM (active) | > 100 µM (inactive) | 0.248 µM (active) | > 100 µM (inactive) | > 100 µM (inactive) | > 58.9 µM (inactive) | > 29 µM (inactive) | 0.923 µM (active) | > 93.3 µM (inactive) | > 100 µM (inactive) | – | – | – | –
8 | COc1cc2c(oc(=O)c3cc(C)cc(OC)c32)c2c(C3OC(C)C(O)C(C)(O)C3O)ccc(O)c12 (stereo not drawn) | – | 0.551 µM (active) | 0.32 µM (active) | 0.075 µM (active) | 0.223 µM (active) | 0.681 µM (active) | 0.454 µM (active) | 0.349 µM (active) | 0.581 µM (active) | 1.18 µM (inactive) | 0.562 µM (active) | 0.312 µM (active) | 0.335 µM (active) | 0.414 µM (active) | 1.04 µM (active) | 0.466 µM (active) | 0.315 µM (active) | 1.41 µM (inactive) | 0.706 µM (active) | 0.755 µM (active)
9 | O=C1CCCCC2N(C(c3ccccc3)c3ccccc3)CC[C@@]12c1ccccc1.O=C1CCCC[C@H]2N(C(c3ccccc3)c3ccccc3)CC[C@@]12c1ccccc1 (stereo partly drawn) | 8.87 µM (inactive) | – | 6.3 µM (inactive) | 3.06 µM (inactive) | 4.8 µM (inactive) | > 10 µM (inactive) | 2.77 µM (inactive) | > 10 µM (inactive) | 4.57 µM (inactive) | > 10 µM (inactive) | > 10 µM (inactive) | – | > 10 µM (inactive) | > 10 µM (inactive) | 8.05 µM (inactive) | > 10 µM (inactive) | 5.19 µM (inactive) | – | > 10 µM (inactive) | > 10 µM (inactive)
10 | CCCCN(C(=O)c1ccccc1)C1CCC(=O)c2[nH]c3ccccc3c21 (stereo not drawn) | 31.3 µM (inactive) | 21 µM (inactive) | 43.1 µM (inactive) | 32.8 µM (inactive) | 62.4 µM (inactive) | – | 19.4 µM (inactive) | 45.4 µM (inactive) | 18.7 µM (inactive) | 61.1 µM (inactive) | 43.6 µM (inactive) | 59.4 µM (inactive) | 29.1 µM (inactive) | 25 µM (inactive) | 66.5 µM (inactive) | 31.5 µM (inactive) | – | – | – | –
11 | CN(C)CCCNC(=O)N/N=C/c1ccccc1 | > 100 µM (inactive) | – | > 100 µM (inactive) | > 100 µM (inactive) | – | – | – | > 100 µM (inactive) | > 100 µM (inactive) | > 100 µM (inactive) | > 100 µM (inactive) | > 100 µM (inactive) | > 100 µM (inactive) | > 100 µM (inactive) | > 100 µM (inactive) | > 100 µM (inactive) | > 100 µM (inactive) | > 100 µM (inactive) | > 100 µM (inactive) | > 100 µM (inactive)
12 | COc1ccc2[nH]c3c(C)c4ccncc4c(C)c3c2c1 | – | 0.19 µM (active) | 0.251 µM (active) | 0.0635 µM (active) | 0.34 µM (active) | 1.42 µM (inactive) | 0.289 µM (active) | 0.429 µM (active) | 1.26 µM (inactive) | 0.75 µM (active) | 0.532 µM (active) | 0.0918 µM (active) | 0.513 µM (active) | 0.731 µM (active) | 1.42 µM (inactive) | 0.409 µM (active) | 0.446 µM (active) | 1.29 µM (inactive) | – | 2.69 µM (inactive)
13 | C=CCC12CC(=O)C=C1CCC1(C2)OCCO1 (stereo not drawn) | > 100 µM (inactive) | > 100 µM (inactive) | – | > 100 µM (inactive) | – | – | > 100 µM (inactive) | > 100 µM (inactive) | > 100 µM (inactive) | > 100 µM (inactive) | > 100 µM (inactive) | > 100 µM (inactive) | > 100 µM (inactive) | > 100 µM (inactive) | > 100 µM (inactive) | > 100 µM (inactive) | – | > 100 µM (inactive) | > 100 µM (inactive) | > 100 µM (inactive)
14 | O=C1NC(=O)C(CCO)(c2ccccc2)C(=O)N1 | – | > 100 µM (inactive) | > 31.6 µM (inactive) | > 100 µM (inactive) | > 100 µM (inactive) | > 100 µM (inactive) | – | > 100 µM (inactive) | > 100 µM (inactive) | > 100 µM (inactive) | > 100 µM (inactive) | > 100 µM (inactive) | > 100 µM (inactive) | > 100 µM (inactive) | > 100 µM (inactive) | > 100 µM (inactive) | > 100 µM (inactive) | > 100 µM (inactive) | > 100 µM (inactive) | > 100 µM (inactive)
15 | CN(C)c1ccc(C2CC(=O)CC(c3ccc(N(C)C)cc3)C23C(=O)NC(=O)NC3=O)cc1 (stereo not drawn) | > 25 µM (inactive) | > 25 µM (inactive) | > 25 µM (inactive) | 0.0025 µM (active) | > 25 µM (inactive) | > 25 µM (inactive) | > 25 µM (inactive) | 19.5 µM (inactive) | > 25 µM (inactive) | – | 9.14 µM (inactive) | > 25 µM (inactive) | 20.6 µM (inactive) | 19.5 µM (inactive) | > 25 µM (inactive) | 14.9 µM (inactive) | – | – | – | –
16 | Nc1ccccc1S(=O)(=O)c1ccccc1 | > 100 µM (inactive) | > 100 µM (inactive) | > 100 µM (inactive) | > 100 µM (inactive) | > 100 µM (inactive) | > 100 µM (inactive) | > 100 µM (inactive) | > 100 µM (inactive) | > 100 µM (inactive) | > 100 µM (inactive) | > 100 µM (inactive) | > 100 µM (inactive) | > 100 µM (inactive) | > 100 µM (inactive) | > 100 µM (inactive) | > 100 µM (inactive) | > 100 µM (inactive) | > 100 µM (inactive) | > 100 µM (inactive) | –
